Results on 37 sequences are retold here after the OligoGym collection.

“And” between values parts separate entries of the source, which are not always exact repeats. Equal entries are not always repeated. After the bases stand the sugars from the 5' end (letter, count) and the backbone: PS all phosphorothioate, else s phosphorothioate and o phosphodiester by linkage. Methylation of C is not given here. e = 2'-O-(2-methoxyethyl) (MOE); k = constrained ethyl (cEt); d = 2'-deoxy (DNA)

The target in one data set is IRF4. Conditions: ASO, MM.1R, 0.0625 µM.
Turning to AGAACATTACGAGAGG (sugars k3 d10 k3, PS), the target mRNA inhibition was 2% and 12%.

Staying with this data set, now noted: ASO, MM.1R, 0.25 µM.
As for AGAACATTACGAGAGG (sugars k3 d10 k3, PS), the target mRNA inhibition was 16% and 20%.

The data set is the same for the next values; noted with them: ASO, MM.1R, 1 µM.
As to “ACTGCTTGAGGTTTTC (sugars kkkddddddddkekek, PS)”, the target mRNA inhibition was 32%.
On the same count and under the same terms, the result for “ACTGTTACCGATGCTT (sugars kddddddddddkekek, PS)” reads 20%; that for “ACTGTTACCGATGCTT (sugars kkdddddddddekeke, PS)”, 23% and 37%.
Regarding “ACTGTTACCGATGCTT (sugars kkdddddddddkdkdk, PS)”, the target mRNA inhibition was 22% and 31%.
Still for that read-out and setting: the result for ACTTATTTGTGGCTCA (sugars k3 d10 k3, PS) reads 36%.
On the same count and under the same terms, for ACTTGCATCCATGTCA (sugars k3 d10 k3, PS) the value was 35%.
On the same count and under the same terms, for ACTTGCTAAGTCTTAT (sugars k3 d10 k3, PS) the value was 13%; for “ACTTTTAGAGAGGAGA (sugars e1 k2 d9 k2 e2, PS)”, 28%; for “ACTTTTAGAGAGGAGA (sugars k3 d9 k3 e1, PS)”, 36%.
For the sequence “ACTTTTAGAGAGGAGA (sugars kdddddddddkekeke, PS)”, the target mRNA inhibition worked out at 17%.
On the same count and under the same terms, for “ACTTTTAGAGAGGAGA (sugars kkddddddddddkeke, PS)” the value was 23%; for “ACTTTTAGAGAGGAGA (sugars kkdddddddddekeke, PS)”, 52%.
The same measure, in the same setting: for “ACTTTTAGAGAGGAGA (sugars kkdddddddddkekek, PS)” the value was 40%.
Same read-out and setting: the result for AGAAACAGAGACGCGG (sugars k3 d10 k3, PS) reads 11%.
As to AGAACATTACGAGAGG (sugars k3 d10 k3, PS), the target mRNA inhibition was 41% and 51%.
Still for that read-out and setting: the result for AGAACTTGCTAAGTCT (sugars k3 d10 k3, PS) reads -34%; that for AGACAGGTCTCTACCT (sugars k3 d10 k3, PS), -12%.
The same measure, in the same setting: the result for AGAGACGCGGTGAGAG (sugars k3 d10 k3, PS) reads -20%; that for AGAGAGTCCGACGCAC (sugars k3 d10 k3, PS), -18%; that for AGAGGCGACTGCTGAA (sugars k3 d10 k3, PS), -19%.
Take AGAGGTGCCTTCTTTA (sugars k3 d10 k3, PS): the target mRNA inhibition was determined as 18%.
Same read-out and setting: for AGATACAAAACGGACT (sugars k3 d10 k3, PS) the value was -15%.
Take AGCAACTAGCAGGGCA (sugars k3 d10 k3, PS): the target mRNA inhibition is -2%.

The same data set, now with this note: ASO, MM.1R, 4 µM.
For AGAACATTACGAGAGG (sugars k3 d10 k3, PS), the target mRNA inhibition was 65% and 66%.

Still in this data set, the particulars now being: ASO, SK-MEL-28, 4 µM.
On to ACTTAGACATTACTAG (sugars k3 d10 k3, PS), for which the target mRNA inhibition amounted to 20%.
For ACTTTTAGAGAGGAGA (sugars k3 d10 k3, PS), the target mRNA inhibition was 64%.
Same read-out and setting: for AGACAAATCTTCTGCC (sugars k3 d10 k3, PS) the value was -4%; for AGACATACCTACAAGC (sugars k3 d10 k3, PS), 50%; for AGACCAGGATTCGCCA (sugars k3 d10 k3, PS), 33%.
Turning to AGAGTGGGTGTTGGCC (sugars k3 d10 k3, PS), the target mRNA inhibition was 25%.
The same measure, in the same setting: for AGAGTGGTACACCTCT (sugars k3 d10 k3, PS) the value was 22%; for AGATATCCTGCAACTG (sugars k3 d10 k3, PS), -9%.
Turning to AGCAAACCCTGCACTC (sugars k3 d10 k3, PS), the target mRNA inhibition amounted to 8%.
AGCAAAGCAAGTGTCT (sugars k3 d10 k3, PS): the target mRNA inhibition was found to be 58%.
The same measure, in the same setting: for AGCAAGTGGAGGTCTT (sugars k3 d10 k3, PS) the value was 63%.
Turning to AGCAAGTGTCTTCCAC (sugars k3 d10 k3, PS), the target mRNA inhibition was 75% and 72%.
Take AGCACCGTGTGGAAAG (sugars k3 d10 k3, PS): the target mRNA inhibition was found to be 57%.
Same read-out and setting: the result for AGCACTGGCATCGAGA (sugars k3 d10 k3, PS) reads 59%.
